Data set [1] deals with Smn protein. Kind of data set: Smn protein assay in cultured cells (SMN HTRF). Conditions: for EC1.5x (concentration giving 1.5-fold Smn protein increase): read-out: EC1.5x for Smn protein expression. It is filed as cell-based, human. The gist of the method: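 Lysates in RIPA with protease inhibitors are incubated overnight at room temperature with HTRF anti-SMN antibodies. EC1.5x is derived from fold increase in ΔF over vehicle.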
Background: TR-FRET usually uses a lanthanide donor and a delayed reading to cut background.

Data set [2] concerns SMN2 minigene (full length SMN2 minigene mRNA containing SMN2 exon 7). Kind of data set: SMN2 minigene mRNA splicing RT-qPCR assay in cultured cells. It is filed as cell-based, human. The settings on record: Homo sapiens, HEK293-H, read-out: EC1.5x for production of full length SMN2 mRNA. An outline of the steps:
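HEK293H cells stably carrying the SMN2-A minigene treated 24 h at 37° C with compound (DMSO, 200× stock), then lysed. Multiplex RT-qPCR (SMN primers 0.4 μM final; 40 cycles) measures full-length exon 7-containing minigene mRNA, normalized to GAPDH and to vehicle; EC1.5x derived and binned by stars.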
A general note: Real-time PCR tracks product formation cycle by cycle.

Where [3] appears, read: SMA Type 1 patient fibroblast cells (GM03813), 48 hours, 7-point concentration curve, SMN HTRF, concentration producing 1.5 times Smn protein vs DMSO vehicle control.
[4] abbreviates: SMA patient fibroblast cells, 48 hours, 7-point concentration data, fold increase relative to vehicle control (SMN HTRF).
Where [5] appears, read: HEK293H cells stably transfected with SMN2-A minigene, 24 hours, 7-point concentration curve, 1.5-fold relative to vehicle-treated cells.

Structures are written as SMILES. Where two headings read alike, the source gives them in different places. A value given as a limit tells only on which side of the number the result lay.

Usually melting point stands for the temperature of the solid-liquid transition. Consider `Cc1cn2cc(-c3cc4ccc(N5C[C@@H]6CCN(C)[C@@H]6C5)cc4oc3=O)cc2c(C)n1` [Compound 729, 3-(1,3-dimethylpyrrolo[1,2-a]pyrazin-7-yl)-7-[(3aS,6aS)-1-methylhexahydropyrrolo[3,4-b]pyrrol-5(1H)-yl]-2H-chromen-2-one], for which the melting point fell in the range of 173 to 175 °C. Moreover, in data set [1] (setting [3]), the EC1.5x (concentration giving 1.5-fold Smn protein increase) fell in the range of 1000 to 3000 nM. Also, the “maximum fold (Fold) increase of Smn protein” value (shortened to “maximum fold (Fold) increase”) in data set [1] (setting [4]) is “*** (fold increase between >1.35 and ≤1.5)”. In addition, in data set [2] (setting [5]), the EC (1.5-fold) was less than 0.1 µM.

Take `C[C@@H]1CN[C@@H](C)CN1c1ccc2cc(-c3cn4cc(Cl)ccc4n3)c(=O)oc2c1` [Compound 93, 3-(6-chloroimidazo[1,2-a]pyridin-2-yl)-7-[(2R,5S)-2,5-dimethylpiperazin-1-yl]-2H-chromen-2-one]: the melting point is 245 to 247 °C. The “maximum fold (Fold) increase” value in data set [1] (setting [4]) was “** (fold increase between >1.2 and ≤1.35)”. The EC (1.5-fold) in data set [2] (setting [5]) was 1 to 3 µM.

`Cc1cc(F)c2nc(-c3cc4ccc(N5CCN[C@H](C)C5)cc4oc3=O)cn2c1` [Compound 420, 3-(8-fluoro-6-methylimidazo[1,2-a]pyridin-2-yl)-7-[(3R)-3-methylpiperazin-1-yl]-2H-chromen-2-one] showed a melting point of 246 to 254 °C. Besides, the EC1.5x (concentration giving 1.5-fold Smn protein increase) in data set [1] (setting [3]) is less than 300 nM. Also, the “maximum fold (Fold) increase” value in data set [1] (setting [4]) was “**** (fold increase between >1.5 and ≤1.65)”. For the same compound, in data set [2] (setting [5]), the EC (1.5-fold) was less than 0.1 µM.

In turn, `Cc1cn2cc(-c3cc4ccc(N5CCCN(C(C)C)CC5)cc4oc3=O)cc2c(C)n1` [Compound 754, 3-(1,3-dimethylpyrrolo[1,2-a]pyrazin-7-yl)-7-[4-(propan-2-yl)-1,4-diazepan-1-yl]-2H-chromen-2-one] gave a melting point of 115 to 118 °C. Further, the “maximum fold (Fold) increase” value in data set [1] (setting [4]) is “*** (fold increase between >1.35 and ≤1.5)”. The EC (1.5-fold) in data set [2] (setting [5]) was less than 0.1 µM.

`Cc1cn2cc(-c3cc4ccc(N5C[C@@H](C)N[C@@H](C)C5)cc4oc3=O)cc2cn1` [Compound 584, 7-[(3R,5S)-3,5-dimethylpiperazin-1-yl]-3-(3-methylpyrrolo[1,2-a]pyrazin-7-yl)-2H-chromen-2-one] displayed a melting point of 172 to 174 °C. Moreover, the EC1.5x (concentration giving 1.5-fold Smn protein increase) in data set [1] (setting [3]) was less than 300 nM. Besides, in data set [1] (setting [4]), the “maximum fold (Fold) increase” value was “***** (fold increase >1.65)”. Also, the EC (1.5-fold) in data set [2] (setting [5]) was less than 0.1 µM.

Take `Cc1cn2cc(-c3cc4ccc(N5CC[C@@H](N(C)C)C5)cc4oc3=O)nc2c(C)n1` [Compound 690, 7-[(3R)-3-(dimethylamino)pyrrolidin-1-yl]-3-(6,8-dimethylimidazo[1,2-a]pyrazin-2-yl)-2H-chromen-2-one]: the melting point is 239 to 242 °C. Moreover, the EC1.5x (concentration giving 1.5-fold Smn protein increase) in data set [1] (setting [3]) was in the range of 300 to 1000 nM. Also, in data set [1] (setting [4]), the “maximum fold (Fold) increase” value was “**** (fold increase between >1.5 and ≤1.65)”. In data set [2] (setting [5]), the EC (1.5-fold) was 0.1 to 0.3 µM.

The compound `CN1CCN(c2ccc3cc(-c4cn5cccc(Br)c5n4)c(=O)oc3c2)CC1` [Compound 245, 3-(8-bromoimidazo[1,2-a]pyridin-2-yl)-7-(4-methylpiperazin-1-yl)-2H-chromen-2-one] returned a melting point of 217 to 220 °C. Further, in data set [1] (setting [4]), the “maximum fold (Fold) increase” value is “** (fold increase between >1.2 and ≤1.35)”. Further, the EC (1.5-fold) in data set [2] (setting [5]) lay in the range of 0.1 to 0.3 µM.

The compound `CC1(C)CN(c2ccc3cc(-c4cn5cccc(F)c5n4)c(=O)oc3c2)CCN1` [Compound 507, 7-(3,3-dimethylpiperazin-1-yl)-3-(8-fluoroimidazo[1,2-a]pyridin-2-yl)-2H-chromen-2-one] had a melting point of 180 to 182 °C. Besides, the EC1.5x (concentration giving 1.5-fold Smn protein increase) in data set [1] (setting [3]) is less than 300 nM. In addition, in data set [1] (setting [4]), the “maximum fold (Fold) increase” value was “**** (fold increase between >1.5 and ≤1.65)”. Also, in data set [2] (setting [5]), the EC (1.5-fold) was 0.1 to 0.3 µM.

`Cc1cn2cc(-c3cc4ccc(N5CCNCC5)cc4oc3=O)nc2cn1` [Compound 567, 3-(6-methylimidazo[1,2-a]pyrazin-2-yl)-7-(piperazin-1-yl)-2H-chromen-2-one]: the melting point was in the range of 288 to 290 °C. Also, the EC1.5x (concentration giving 1.5-fold Smn protein increase) in data set [1] (setting [3]) was less than 300 nM. Besides, the “maximum fold (Fold) increase” value in data set [1] (setting [4]) was “***** (fold increase >1.65)”. Moreover, the EC (1.5-fold) in data set [2] (setting [5]) is less than 0.1 µM.

In the case of `COc1ccc(-c2cc3c(F)cc(N4CCN[C@H](C)C4)cc3oc2=O)cc1OC` [Compound 416, 3-(3,4-dimethoxyphenyl)-5-fluoro-7-[(3R)-3-methylpiperazin-1-yl]-2H-chromen-2-one], the melting point fell in the range of 115 to 117 °C. Also, the “maximum fold (Fold) increase” value in data set [1] (setting [4]) is “** (fold increase between >1.2 and ≤1.35)”. The EC (1.5-fold) in data set [2] (setting [5]) was in the range of 1 to 3 µM.

For `Cc1ccc2nc(-c3cc4ccc(N5C[C@@H](C)N[C@@H](C)C5)cc4oc3=O)cn2n1` [Cpd 617, 7-[(3R,5S)-3,5-dimethylpiperazin-1-yl]-3-(6-methylimidazo[1,2-b]pyridazin-2-yl)-2H-chromen-2-one], the melting point lay in the range of 225 to 227 °C. Besides, in data set [1] (setting [4]), the “maximum fold (Fold) increase” value is “*** (fold increase between >1.35 and ≤1.5)”. Besides, in data set [2] (setting [5]), the EC (1.5-fold) is less than 0.1 µM.

Turning to `C[C@H]1CN(c2ccc3cc(-c4cn5cccnc5n4)c(=O)oc3c2)CCN1` [Compound 170, 3-(imidazo[1,2-a]pyrimidin-2-yl)-7-[(3S)-3-methylpiperazin-1-yl]-2H-chromen-2-one], the melting point lay within 282 to 285 °C. In addition, in data set [1] (setting [4]), the “maximum fold (Fold) increase” value was “** (fold increase between >1.2 and ≤1.35)”. Besides, in data set [2] (setting [5]), the EC (1.5-fold) was 0.3 to 1 µM.

In the case of `Cc1nc(Cl)cn2cc(-c3cc4ccc(N5CCN6CCC[C@@H]6C5)cc4oc3=O)nc12` [Compound 710, 3-(6-chloro-8-methylimidazo[1,2-a]pyrazin-2-yl)-7-[(8aR)-hexahydropyrrolo[1,2-a]pyrazin-2(1H)-yl]-2H-chromen-2-one], the melting point was in the range of 268 to 272 °C. Also, the “maximum fold (Fold) increase” value in data set [1] (setting [4]) was “** (fold increase between >1.2 and ≤1.35)”. In data set [2] (setting [5]), the EC (1.5-fold) is less than 0.1 µM.

Consider `CCCN1CCN(c2ccc3cc(-c4cn5cccc(Cl)c5n4)c(=O)oc3c2)CC1` [Compound 119, 3-(8-chloroimidazo[1,2-a]pyridin-2-yl)-7-(4-propylpiperazin-1-yl)-2H-chromen-2-one], for which the melting point is 245 to 247 °C. Besides, in data set [1] (setting [4]), the “maximum fold (Fold) increase” value was “** (fold increase between >1.2 and ≤1.35)”. Further, the EC (1.5-fold) in data set [2] (setting [5]) lay in the range of 0.3 to 1 µM.

The compound `Cc1cn2cc(-c3cc4ccc(OC5CCN(C(C)C)CC5)cc4oc3=O)nc2c(C)n1` [Compound 901, 3-(6,8-dimethylimidazo[1,2-a]pyrazin-2-yl)-7-{[1-(propan-2-yl)piperidin-4-yl]oxy}-2H-chromen-2-one] showed a melting point of 185 to 191 °C. Moreover, in data set [1] (setting [3]), the EC1.5x (concentration giving 1.5-fold Smn protein increase) is less than 300 nM. The “maximum fold (Fold) increase” value in data set [1] (setting [4]) is listed as “***** (fold increase >1.65)”. Moreover, the EC (1.5-fold) in data set [2] (setting [5]) was less than 0.1 µM.

In turn, `Cc1cn2cc(-c3cc4ccc(OCCN5CCCC5)cc4oc3=O)nc2c(C)n1` [Cpd 918, 3-(6,8-dimethylimidazo[1,2-a]pyrazin-2-yl)-7-[2-(pyrrolidin-1-yl)ethoxy]-2H-chromen-2-one] registered a melting point of 201 to 203 °C. Also, the EC1.5x (concentration giving 1.5-fold Smn protein increase) in data set [1] (setting [3]) lay within 300 to 1000 nM. For the same compound, in data set [1] (setting [4]), the “maximum fold (Fold) increase” value was “**** (fold increase between >1.5 and ≤1.65)”. For the same compound, the EC (1.5-fold) in data set [2] (setting [5]) was less than 0.1 µM.

In turn, `Cc1cn2cc(-c3cc4ccc(C5=CCN(C(C)C)CC5)cc4oc3=O)nc2c(C)n1` [Compound 802, 3-(6,8-dimethylimidazo[1,2-a]pyrazin-2-yl)-7-[1-(propan-2-yl)-1,2,3,6-tetrahydropyridin-4-yl]-2H-chromen-2-one] gave a melting point of 207 to 217 °C. In addition, in data set [1], the “maximum fold (Fold) increase” value is “**** (key: *: maximum fold increase of ≤1.2; **: fold increase between >1.2 and ≤1.35; ***: fold increase between >1.35 and ≤1.5; ****: fold increase between >1.5 and ≤1.65; *****: fold increase >1.65)”; the EC1.5x (concentration giving 1.5-fold Smn protein increase) is less than 300 nM. Further, the EC (1.5-fold) in data set [2] (24 h) is less than 0.1 µM.

For `Cc1cn2cc(-c3cc4ccc(O[C@@H]5CCN(C(C)CO)C5)cc4oc3=O)nc2c(C)n1` (stereo partly drawn) [Compound 893, 3-(6,8-dimethylimidazo[1,2-a]pyrazin-2-yl)-7-{[(3R)-1-(1-hydroxypropan-2-yl)pyrrolidin-3-yl]oxy}-2H-chromen-2-one], the melting point is 196 to 202 °C. Also, the EC1.5x (concentration giving 1.5-fold Smn protein increase) in data set [1] (setting [3]) is less than 300 nM. Also, the “maximum fold (Fold) increase” value in data set [1] (setting [4]) is on record as “***** (fold increase >1.65)”. Also, the EC (1.5-fold) in data set [2] (setting [5]) was less than 0.1 µM.

Regarding `Cc1cc2cc(-c3cc4ccc(N5CCNCC5)cc4oc3=O)oc2c(C)n1` [Cpd 723, 3-(5,7-dimethylfuro[2,3-c]pyridin-2-yl)-7-(piperazin-1-yl)-2H-chromen-2-one], the melting point was in the range of 218 to 220 °C. Also, in data set [1] (setting [3]), the EC1.5x (concentration giving 1.5-fold Smn protein increase) is less than 300 nM. For the same compound, in data set [1] (setting [4]), the “maximum fold (Fold) increase” value is reported as “***** (fold increase >1.65)”. The EC (1.5-fold) in data set [2] (setting [5]) is less than 0.1 µM.
